Laboratory results from the NIST ThermoML archive (doi:10.1021/je100148h).
Numbers after ± are expanded uncertainties.

Test: xn = mol fraction of the nth substance listed
Conditions: Fluid (supercritical or subcritical phases), Burnett expansion method

CCC [propane] + O=C=O
Conditions | mass density [kg/m3]
319.99 K, 766.06 kPa, x2 = 0.8017 | 13.1764 ± 0.011
320 K, 410.29 kPa, x2 = 0.8017 | 6.9285 ± 0.012
320 K, 561.41 kPa, x2 = 0.8017 | 9.5546 ± 0.012
320 K, 1040.9 kPa, x2 = 0.8017 | 18.1699 ± 0.011
320 K, 1137.2 kPa, x2 = 0.5158 | 20.5385 ± 0.012
320 K, 1406.4 kPa, x2 = 0.8017 | 25.056 ± 0.012
320 K, 1885.5 kPa, x2 = 0.8017 | 34.5507 ± 0.013
320 K, 2500.6 kPa, x2 = 0.8017 | 47.6423 ± 0.014
320 K, 3266.5 kPa, x2 = 0.8017 | 65.693 ± 0.015
320.01 K, 158.39 kPa, x2 = 0.8017 | 2.6416 ± 0.012
320.01 K, 177.71 kPa, x2 = 0.5158 | 2.9791 ± 0.011
320.01 K, 217.81 kPa, x2 = 0.8017 | 3.6431 ± 0.012
320.01 K, 244.02 kPa, x2 = 0.5158 | 4.1102 ± 0.011
320.01 K, 299.21 kPa, x2 = 0.8017 | 5.0239 ± 0.012
320.01 K, 334.43 kPa, x2 = 0.5158 | 5.6704 ± 0.011
320.01 K, 457.2 kPa, x2 = 0.5158 | 7.8226 ± 0.011
320.01 K, 622.82 kPa, x2 = 0.5158 | 10.7917 ± 0.011
320.01 K, 844.37 kPa, x2 = 0.5158 | 14.8878 ± 0.011
320.01 K, 1518.1 kPa, x2 = 0.5158 | 28.332 ± 0.013
320.01 K, 1999.6 kPa, x2 = 0.5158 | 39.0832 ± 0.014
320.01 K, 2584 kPa, x2 = 0.5158 | 53.9126 ± 0.015
329.98 K, 579.89 kPa, x2 = 0.8017 | 9.5517 ± 0.013
329.99 K, 791.85 kPa, x2 = 0.8017 | 13.1719 ± 0.012
329.99 K, 1457.4 kPa, x2 = 0.8017 | 25.0477 ± 0.012
329.99 K, 3418.1 kPa, x2 = 0.8017 | 65.6701 ± 0.015
330 K, 308.75 kPa, x2 = 0.8017 | 5.0223 ± 0.014
330 K, 423.55 kPa, x2 = 0.8017 | 6.9261 ± 0.013
330 K, 1958.2 kPa, x2 = 0.8017 | 34.5379 ± 0.012
330 K, 2604.9 kPa, x2 = 0.8017 | 47.625 ± 0.013
330 K, 4401.1 kPa, x2 = 0.8017 | 90.5446 ± 0.016
330.01 K, 163.4 kPa, x2 = 0.8017 | 2.6407 ± 0.014
330.01 K, 183.36 kPa, x2 = 0.5158 | 2.9774 ± 0.011
330.01 K, 224.73 kPa, x2 = 0.8017 | 3.6418 ± 0.014
330.01 K, 251.86 kPa, x2 = 0.5158 | 4.1078 ± 0.011
330.01 K, 345.31 kPa, x2 = 0.5158 | 5.667 ± 0.011
330.01 K, 472.35 kPa, x2 = 0.5158 | 7.8181 ± 0.011
330.01 K, 644.04 kPa, x2 = 0.5158 | 10.7856 ± 0.011
330.01 K, 874.2 kPa, x2 = 0.5158 | 14.879 ± 0.011
330.01 K, 1077.1 kPa, x2 = 0.8017 | 18.1629 ± 0.012
330.01 K, 1179.4 kPa, x2 = 0.5158 | 20.5259 ± 0.011
330.01 K, 1578.5 kPa, x2 = 0.5158 | 28.3153 ± 0.012
330.01 K, 2086.8 kPa, x2 = 0.5158 | 39.0593 ± 0.013
330.01 K, 2711.7 kPa, x2 = 0.5158 | 53.8795 ± 0.015
330.01 K, 3442.6 kPa, x2 = 0.5158 | 74.3214 ± 0.018
339.99 K, 598.29 kPa, x2 = 0.8017 | 9.5479 ± 0.015
339.99 K, 817.54 kPa, x2 = 0.8017 | 13.1668 ± 0.014
339.99 K, 1508.1 kPa, x2 = 0.8017 | 25.0378 ± 0.013
340 K, 231.59 kPa, x2 = 0.8017 | 3.6405 ± 0.016
340 K, 436.79 kPa, x2 = 0.8017 | 6.9234 ± 0.015
340 K, 2030.2 kPa, x2 = 0.8017 | 34.5251 ± 0.012
340 K, 2708.2 kPa, x2 = 0.8017 | 47.606 ± 0.013
340 K, 3567.9 kPa, x2 = 0.8017 | 65.643 ± 0.014
340 K, 4621.3 kPa, x2 = 0.8017 | 90.5058 ± 0.019
340.01 K, 168.38 kPa, x2 = 0.8017 | 2.6397 ± 0.016
340.01 K, 189.01 kPa, x2 = 0.5158 | 2.9763 ± 0.011
340.01 K, 259.67 kPa, x2 = 0.5158 | 4.1062 ± 0.011
340.01 K, 318.3 kPa, x2 = 0.8017 | 5.0202 ± 0.015
340.01 K, 487.5 kPa, x2 = 0.5158 | 7.8151 ± 0.011
340.01 K, 665.18 kPa, x2 = 0.5158 | 10.7812 ± 0.011
340.01 K, 903.91 kPa, x2 = 0.5158 | 14.873 ± 0.011
340.01 K, 1113.1 kPa, x2 = 0.8017 | 18.156 ± 0.013
340.01 K, 1221.3 kPa, x2 = 0.5158 | 20.5179 ± 0.011
340.01 K, 1638.3 kPa, x2 = 0.5158 | 28.3036 ± 0.012
340.01 K, 2172.9 kPa, x2 = 0.5158 | 39.0436 ± 0.013
340.01 K, 2837.3 kPa, x2 = 0.5158 | 53.8584 ± 0.014
340.01 K, 3628.8 kPa, x2 = 0.5158 | 74.2902 ± 0.02
340.01 K, 4509 kPa, x2 = 0.5158 | 102.472 ± 0.023
340.01 K, 5849.8 kPa, x2 = 0.8017 | 124.787 ± 0.022
340.02 K, 356.19 kPa, x2 = 0.5158 | 5.6647 ± 0.011
350.01 K, 173.33 kPa, x2 = 0.8017 | 2.6389 ± 0.018
350.01 K, 194.63 kPa, x2 = 0.5158 | 2.9748 ± 0.011
350.01 K, 267.49 kPa, x2 = 0.5158 | 4.1042 ± 0.011
350.01 K, 367.05 kPa, x2 = 0.5158 | 5.662 ± 0.011
350.01 K, 502.56 kPa, x2 = 0.5158 | 7.8112 ± 0.011
350.01 K, 616.66 kPa, x2 = 0.8017 | 9.5444 ± 0.016
350.01 K, 686.24 kPa, x2 = 0.5158 | 10.776 ± 0.011
350.01 K, 843.17 kPa, x2 = 0.8017 | 13.1618 ± 0.016
350.01 K, 933.45 kPa, x2 = 0.5158 | 14.8658 ± 0.011
350.01 K, 1149 kPa, x2 = 0.8017 | 18.1499 ± 0.015
350.01 K, 1263 kPa, x2 = 0.5158 | 20.5077 ± 0.011
350.01 K, 1558.6 kPa, x2 = 0.8017 | 25.0284 ± 0.014
350.01 K, 1697.7 kPa, x2 = 0.5158 | 28.2897 ± 0.012
350.01 K, 2101.9 kPa, x2 = 0.8017 | 34.5131 ± 0.013
350.01 K, 2258.2 kPa, x2 = 0.5158 | 39.0243 ± 0.012
350.01 K, 2810.8 kPa, x2 = 0.8017 | 47.5894 ± 0.013
350.01 K, 2961.5 kPa, x2 = 0.5158 | 53.8306 ± 0.014
350.01 K, 3716.3 kPa, x2 = 0.8017 | 65.6181 ± 0.013
350.01 K, 3812 kPa, x2 = 0.5158 | 74.2525 ± 0.018
350.01 K, 4782.9 kPa, x2 = 0.5158 | 102.417 ± 0.024
350.01 K, 4838.8 kPa, x2 = 0.8017 | 90.4734 ± 0.018
350.01 K, 5812.8 kPa, x2 = 0.5158 | 141.262 ± 0.028
350.02 K, 238.49 kPa, x2 = 0.8017 | 3.6392 ± 0.018
350.02 K, 327.8 kPa, x2 = 0.8017 | 5.0187 ± 0.017
350.02 K, 450.01 kPa, x2 = 0.8017 | 6.9209 ± 0.017
350.02 K, 6175.3 kPa, x2 = 0.8017 | 124.74 ± 0.021
360.01 K, 200.24 kPa, x2 = 0.5158 | 2.9738 ± 0.011
360.01 K, 275.27 kPa, x2 = 0.5158 | 4.1028 ± 0.011
360.01 K, 377.87 kPa, x2 = 0.5158 | 5.66 ± 0.011
360.01 K, 517.62 kPa, x2 = 0.5158 | 7.8085 ± 0.011
360.01 K, 707.21 kPa, x2 = 0.5158 | 10.7723 ± 0.011
360.01 K, 962.87 kPa, x2 = 0.5158 | 14.8606 ± 0.011
360.01 K, 1184.7 kPa, x2 = 0.8017 | 18.1432 ± 0.016
360.01 K, 1304.5 kPa, x2 = 0.5158 | 20.5005 ± 0.011
360.01 K, 1608.9 kPa, x2 = 0.8017 | 25.0192 ± 0.015
360.01 K, 1756.6 kPa, x2 = 0.5158 | 28.2797 ± 0.012
360.01 K, 2173.2 kPa, x2 = 0.8017 | 34.4994 ± 0.014
360.01 K, 2342.9 kPa, x2 = 0.5158 | 39.0102 ± 0.012
360.01 K, 2912.6 kPa, x2 = 0.8017 | 47.5708 ± 0.013
360.01 K, 3084.3 kPa, x2 = 0.5158 | 53.8108 ± 0.013
360.01 K, 3992.6 kPa, x2 = 0.5158 | 74.2241 ± 0.017
360.01 K, 5052 kPa, x2 = 0.5158 | 102.377 ± 0.032
